Values joined by “and” are separate entries in the source; they are usually repeats but may differ in a detail not shown here. Equal values may be shown once. Blank lines part the entries; values can stand above or below the molecule they belong to.
Legend:
Molt4 cells = experiment: Proteome-wide profiling by TMT quantitative mass spectrometry; type: cell-based; conditions: 100 nM, 5 hours
Experimental: Proteome-wide profiling experiments were performed according to the reported protocol (B. Jiang et al., Angew. Chem. Int. Ed. Engl. 58:6321-6326 (2019)). Molt4 cells were treated with DMSO vehicle, 100 nM of compound 1 or 100 nM of compound 2 for 5 hours. Protein abundance measurements were made using TMT quantitative mass spectrometry and significant changes were assessed by moderated t-test as implemented in the limma package. The log2 fold change (log2 FC) is shown on the […] and negative log10 p value (−log10 p value) on the […] for three independent biological replicates of each treatment.

ITK [1] = target: T1, ITK (Homo sapiens, UniProt Q08881); experiment: ITK degradation in DERL-2 cells (immunoblot); type: cell-based; set-up: endogenous in cells; host or cells: DERL-2 cells
T1 sequence (Q08881 1-620): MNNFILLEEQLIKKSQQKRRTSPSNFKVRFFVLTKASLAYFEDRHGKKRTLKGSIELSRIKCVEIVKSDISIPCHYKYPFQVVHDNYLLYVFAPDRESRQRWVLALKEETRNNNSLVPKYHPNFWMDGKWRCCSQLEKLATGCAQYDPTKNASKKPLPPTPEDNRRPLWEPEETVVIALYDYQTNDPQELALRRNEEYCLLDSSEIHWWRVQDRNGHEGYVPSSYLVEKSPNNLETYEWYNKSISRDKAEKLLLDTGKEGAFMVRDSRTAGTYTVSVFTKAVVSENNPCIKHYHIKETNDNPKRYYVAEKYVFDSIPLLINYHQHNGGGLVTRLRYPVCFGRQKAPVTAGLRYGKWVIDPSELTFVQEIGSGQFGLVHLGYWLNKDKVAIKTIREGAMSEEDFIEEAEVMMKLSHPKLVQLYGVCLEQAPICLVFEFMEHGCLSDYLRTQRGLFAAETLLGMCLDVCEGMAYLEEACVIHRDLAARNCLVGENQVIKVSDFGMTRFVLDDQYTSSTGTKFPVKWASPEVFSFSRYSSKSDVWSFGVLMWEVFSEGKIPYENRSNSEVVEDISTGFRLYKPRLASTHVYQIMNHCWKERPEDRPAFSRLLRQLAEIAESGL
Experimental: (§1) DERL-2 cells (hepatosplenic T-cell lymphoma) were treated with compound 1 for either 4 hours (FIG. 1A) or 18 hours (FIG. 1B) at the indicated doses. After treatment, DERL-2 cells were lysed in Cell Lysis Buffer (Cell Signaling Technology®) on ice for 30 minutes and lysates were clarified by centrifugation. Immunoblotting for ITK was performed to evaluate changes in protein levels upon ITK degrader treatment. All samples were run with equal total protein content and immunoblotting was performed using antibodies that detect total ITK protein as well as GAPDH as a loading control followed by washing and binding of horseradish peroxidase (HRP)-conjugated secondary antibodies. Blots were developed using SuperSignal™ Pico chemiluminescent substrate (Thermo Scientific).
as §1, with “cells” for “cells (hepatosplenic T-cell lymphoma)”, “compound 1, compound 2 or ITK inhibitor (BMS509744)” for “compound 1”, “for” for “for either 4 hours (FIG. 1A) or”, “(FIG. 2)” for “(FIG. 1B)”, “After 18 hours,” for “After treatment,”

Hut78 cells = experiment: Cell growth and cell death (PI, flow cytometry) of Hut78 cells; type: cell-based; conditions: Hut78 cells (independent of IL-2)
ITK [2] = target: T1, ITK; experiment: ITK degradation in DERL-2 cells with NAE inhibitor MLN4924 co-treatment; type: cell-based; set-up: endogenous in cells; host or cells: DERL-2 cells; conditions: 18 hours, combination with NAE inhibitor MLN4924
Experimental: DERL-2 cells were treated with compound 1, the NEDD8-activating enzyme (NAE) inhibitor MLN4924, or in combination for 18 hours (FIG. 3) at […]. After 18 hours, DERL-2 cells were lysed in Cell Lysis Buffer (Cell Signaling Technology®) on ice for 30 minutes and lysates were clarified by centrifugation. Western blot was performed as described in Example 7.

ITK [3] = target: T1, ITK; experiment: ITK degradation in DERL-2 cells after pre-treatment with excess BMS509744; type: cell-based; set-up: endogenous in cells; host or cells: DERL-2 cells; conditions: 10 μM BMS509744 4 hours, then 100 nM compound 1 4 hours
Experimental: DERL-2 cells were pre-treated with or without 10 μM BMS509744 for 4 hours. After 4 hours, 100 nM compound 1 was added and cells were cultured for another 4 hours. After treatment, DERL-2 cells were lysed in Cell Lysis Buffer (Cell Signaling Technology®) on ice for 30 minutes and lysates were clarified by centrifugation. Western blot was performed as described in Example 7 to detect protein expression levels of ITK, IKZF1, IKZF3, and GAPDH.

ITK [4] = target: T1, ITK; experiment: In vivo ITK degradation in Hut78 xenograft tumors; set-up: endogenous in cells; host or cells: Hut78 cells (in culture; or engrafted subcutaneously in NSG mice and purified from tumours); species or system mouse; conditions: female NSG mice, engrafted Hut78 cells, 50 mg/kg intraperitoneal, 3 doses every 8 hours, 4 hours after last dose
Experimental: In vivo degradation studies were conducted using female NSG mice. 6 eight-week-old NSG mice were injected subcutaneously with 1*10^7 of Hut78 cells. The injected mice were monitored for tumor formation twice a week until tumor growth reaches an average of 500 mm^3. Mice were then randomized into 3 mice per group, and treated with either vehicle (7.5% DMSO, 20% (2-hydroxypropyl)-β-cyclodextrin [HP-β-CD]) or compound 1 at 50 mg/kg via intraperitoneal injection for 3 doses (every 8 hours×3). Four hours after the last doing, mice were sacrificed to harvest tumors. Tumor tissues were cut into small pieces and dissociated into single cell suspension following the instruction of Tumor Dissociation Kit (Miltenyi Biotec, #130-095-929). Suspension cells were then depleted of mouse cells (Catalog #19849, STEMCELL technology). Purified tumor cells were lysed in Cell Lysis Buffer (Cell Signaling Technology®) on ice for 30 minutes and lysates were clarified by centrifugation. Immunoblotting for ITK was performed as described in Example 7 to evaluate protein level changes.

DERL-2 cells = experiment: Cell proliferation and cell death (PI, flow cytometry) of DERL-2 cells in culture with IL-2; type: cell-based
Experimental: DERL-2 cells supplemented in culture with IL-2 (FIG. 4A) or without IL-2 (FIG. 4B and FIG. 4C) were treated with compound 1 at the indicated doses. Cells were split at 1:5 ratio with fixed concentration of compound 1 every two days. Cell numbers and cell death were quantified by flow cytometry. Propidium iodide (PI) solution, a marker of cell death, was added to cells 5 minutes before flow cytometry detection. Percent PI-positive is used to quantify cell death.
DERL-2 cells in culture with IL-2 were treated with either 1 μM of compound 1, 1 μM BMS509744 or DMSO. Cells were split at 1:5 ratio and fresh compounds were added every two days. Cell numbers and cell death were quantified by flow cytometry. PI solution was added to cells 5 minutes before flow cytometry detection to indicate cell death.

ITK [5] = target: T1, ITK; experiment: ITK degradation in Hut78 cells (immunoblot); type: cell-based; set-up: endogenous in cells; conditions: 1 μM, 18 hours
Experimental: Hut78 cells (mycosis fungoides and Sezary syndrome) were treated with or without 1 μM of compound 1 for 18 hours. After treatment, Hut78 cells were lysed in Cell Lysis Buffer (Cell Signaling Technology®) on ice for 30 minutes and lysates were clarified by centrifugation. Immunoblotting for ITK was performed as described in Example 7 to evaluate changes in protein levels upon ITK degrader treatment.

[6] = Mouse pharmacokinetic (PK) study; type: in vivo
Experimental: Standard PK studies were conducted using male C57BI/6 mice obtained from Scripps Fla. A single 2 mg/kg intravenous (IV) injection of compound 1 solution in 5/90 DMSO/10% Captisol® was evaluated. Plasma concentrations of compound 1 reported at each of the 8 time points (5 min, 15 min, 30 min, 1 h, 2 h, 4 h, 6 h and 8 h post dosing) are the average values from 3 test animals.

[7] = DERL-2 cells supplemented with IL-2
[8] = mouse, male C57BI/6 mice, single 2 mg/kg IV, plasma

- concentration at which ITK degradation is evident (ITK [1]; 18 hours): 100 nM
- concentration of maximal ITK degradation (ITK [1]; 18 hours): 1000 nM
Structure (SMILES): COc1cc(C)c(Sc2cnc(NC(=O)c3ccc(N4CCN(CCCCCCCNC(=O)COc5cc6c7c(cccc7c5)C(=O)N(C5CCC(=O)NC5=O)C6=O)CC4)cc3)s2)cc1C(=O)N1CCN(C(C)=O)CC1 (stereo not drawn) [compound 2, N-(5-((5-(4-acetylpiperazine-1-carbonyl)-4-methoxy-2-methylphenyl)thio)thiazol-2-yl)-4-(4-(7-(2-((2-(2,6-dioxopiperidin-3-yl)-1,3-dioxo-2,3-dihydro-1H-benzo[de]isoquinolin-5-yl)oxy)acetamido)heptyl)piperazin-1-yl)benzamide]
- proteins downregulated (relative protein abundance) (Molt4 cells): selectively downregulated ITK
- degradation of ITK protein (immunoblot) (ITK [1]; 18 hours): rapid and pronounced degradation of ITK protein

- ITK degradation induced by compound 1 on treatment with MLN4924 (ITK [2]): rescued the degradation
- ITK degradation induced by compound 1 after pre-treatment with excess BMS509744 (ITK [3]): rescued the degradation
- degradation of ITK protein (immunoblot) (ITK [5]): pronounced degradation of ITK protein
- AUC % Extrap ([6]; male C57BI/6 mice, single 2 mg/kg IV, plasma): 5.14 % Extrap
- AUC(0-t) [6, 8]: 1370 ng·h/mL and 1.34 µM·h
- Cmax [6, 8]: 1710 ng/mL and 1.67 µM
- Tmax [6, 8]: 4.8 min
- half-life [6, 8]: 2.18 h
- AUC(0-inf) ([6]; mouse, male C57BI/6 mice, single 2 mg/kg IV, plasma, read-out: AUCINF—obs (converted)): 1440 ng·h/mL
- clearance ([6]; mouse, male C57BI/6 mice, single 2 mg/kg IV, plasma, read-out: Cl—obs): 25.2 mL/min/kg
- MRT inf ([6]; mouse, male C57BI/6 mice, single 2 mg/kg IV, plasma, read-out: MRTINF—obs): 1.96 h
- Vd ([6]; mouse, male C57BI/6 mice, single 2 mg/kg IV, plasma, read-out: VSS—obs): 2.94 L/kg
- concentration at which ITK degradation is evident (ITK [1]; 18 hours): 1 nM
- concentration of maximal ITK degradation (ITK [1]; 18 hours): 1000 nM
Structure (SMILES): COc1cc(C)c(Sc2cnc(NC(=O)c3ccc(N4CCN(CCCCCCCNC(=O)COc5cccc6c5C(=O)N(C5CCC(=O)NC5=O)C6=O)CC4)cc3)s2)cc1C(=O)N1CCN(C(C)=O)CC1 (stereo not drawn) [compound 1, N-(5-((5-(4-acetylpiperazine-1-carbonyl)-4-methoxy-2-methylphenyl)thio)thiazol-2-yl)-4-(4-(7-(2-((2-(2,6-dioxopiperidin-3-yl)-1,3-dioxoisoindolin-4-yl)oxy)acetamido)heptyl)piperazin-1-yl)benzamide]
- proteins downregulated (relative protein abundance) (Molt4 cells): downregulated ITK, IKZF1, IKZF3, ZFP91, RNF166, ZNF653 and ZNF692
- cell growth and cell death (Hut78 cells): did not inhibit cell growth or induce cell death
- degradation of ITK protein in vivo (immunoblot of purified tumor cells) (ITK [4]): significant degradation of ITK protein in vivo
- cell death (percent PI-positive) compared with DMSO (DERL-2 cells; [7]): induced cell death
- inhibition of cell proliferation compared with DMSO (DERL-2 cells; [7]): > 10 fold
- cell proliferation and cell death of TCL cells (DERL-2 cells; DERL-2 cells with IL-2, 1 μM): blocked cell proliferation and induced cell death
- in vivo metabolic stability, exposure and clearance rate (overall assessment) ([6]; mouse PK, 2 mg/kg IV): good in vivo metabolic stability, exposure and clearance rate
- degradation of ITK protein (immunoblot) (ITK [1]; 4 hours or 18 hours): rapid and pronounced degradation of ITK protein
- degradation of ITK protein (immunoblot) (ITK [1]; 18 hours): rapid and pronounced degradation of ITK protein

Source: US12678508B2, “Compounds for targeted degradation of interleukin-2-inducible T-cell kinase and methods of use” (DANA-FARBER CANCER INSTITUTE, INC., priority 2020, dated 2026)
